Source: the supplement of paper PMC10307832

How the values were obtained:
Assay in all cases: relative viability (nuclei count vs DMSO), 5 days (fraction); higher = more cells survive
NCI-H661 = system: NCI-H661
Procedure, shortened: (§1)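 Relative viability equals treated-well nuclei counts divided by vehicle-well nuclei counts. Counts came from 4× images of lung cancer cell lines grown in 1536-well plates for 5 days after pin-tool dosing on the day after seeding. Dosing used one drug alone or a fixed anchor-drug dose plus five library-drug doses (not always all listed) in √10 steps, and values are medians of duplicate plates.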

NCI-H1915 = system: NCI-H1915
Procedure, shortened: as §1

NCI-H1666 = system: NCI-H1666
Procedure, shortened: as §1

LCLC-97TM1 = system: LCLC-97TM1
Procedure, shortened: as §1

NCI-H1792 = system: NCI-H1792
Procedure, shortened: as §1

NCI-H838 = system: NCI-H838
Procedure, shortened: as §1

EKVX = system: EKVX
Procedure, shortened: as §1

NCI-H1975 = system: NCI-H1975
Procedure, shortened: as §1

SK-LU-1 = system: SK-LU-1
Procedure, shortened: as §1

NCI-H647 = system: NCI-H647
Procedure, shortened: as §1

PC-3 [JPC-3] = conditions: first compound 0.001 µM
Procedure, shortened: as §1

Work on `Cc1cn(-c2cc(NC(=O)c3ccc(C)c(Nc4nccc(-c5cccnc5)n4)c3)cc(C(F)(F)F)c2)cn1` [Nilotinib] + C[C@@H](Oc1cc(-c2cnn(C3CCNCC3)c2)cnc1N)c1c(Cl)ccc(F)c1Cl [Crizotinib] (partner 1 µM) yielded a relative viability (NCI-H661; first compound 0.001 µM) of 0.879, a relative viability (NCI-H661; first compound 0.003162 µM) of 1.12 and a relative viability (NCI-H661; first compound 0.01 µM) of 1.03. For the same compound, the relative viability (NCI-H661; first compound 0.03162 µM) was 0.945, the relative viability (NCI-H661; first compound 0.1 µM) was 0.93 and the relative viability (NCI-H1915; first compound 0.001 µM) was 0.73. For the same compound, the relative viability (NCI-H1915; first compound 0.003162 µM) was 1.18, the relative viability (NCI-H1915; first compound 0.01 µM) was 1.24 and the relative viability (NCI-H1915; first compound 0.03162 µM) was 0.787. The relative viability (NCI-H1915; first compound 0.1 µM) was 0.848, the relative viability (NCI-H1666; first compound 0.001 µM) was 0.826 and the relative viability (NCI-H1666; first compound 0.003162 µM) was 0.983. For the same compound, the relative viability (NCI-H1666; first compound 0.01 µM) was 0.964, the relative viability (NCI-H1666; first compound 0.03162 µM) was 0.936 and the relative viability (NCI-H1666; first compound 0.1 µM) was 1.11. For the same compound, the relative viability (LCLC-97TM1; first compound 0.001 µM) was 0.246, the relative viability (LCLC-97TM1; first compound 0.003162 µM) was 0.328 and the relative viability (LCLC-97TM1; first compound 0.01 µM) was 0.712. For the same compound, the relative viability (LCLC-97TM1; first compound 0.03162 µM) was 0.311, the relative viability (LCLC-97TM1; first compound 0.1 µM) was 0.469 and the relative viability (NCI-H1792; first compound 0.001 µM) was 0.967. For the same compound, the relative viability (NCI-H1792; first compound 0.01 µM) was 1.15, the relative viability (NCI-H1792; first compound 0.1 µM) was 1.16 and the relative viability (NCI-H838; first compound 0.001 µM) was 0.896. The relative viability (NCI-H838; first compound 0.003162 µM) was 0.81, the relative viability (NCI-H838; first compound 0.01 µM) was 1.03 and the relative viability (NCI-H838; first compound 0.03162 µM) was 0.673. For the same compound, the relative viability (NCI-H838; first compound 0.1 µM) was 0.926, the relative viability (EKVX; first compound 0.001 µM) was 0.812 and the relative viability (EKVX; first compound 0.003162 µM) was 1.39. The relative viability (EKVX; first compound 0.01 µM) was 1.42, the relative viability (EKVX; first compound 0.03162 µM) was 0.809 and the relative viability (EKVX; first compound 0.1 µM) was 1.13. It also gave a relative viability (NCI-H1975; first compound 0.001 µM) of 0.811, a relative viability (NCI-H1975; first compound 0.003162 µM) of 1.11 and a relative viability (NCI-H1975; first compound 0.01 µM) of 1.16. The relative viability (NCI-H1975; first compound 0.03162 µM) was 0.616, the relative viability (NCI-H1975; first compound 0.1 µM) was 0.907 and the relative viability (SK-LU-1; first compound 0.001 µM) was 0.893. The relative viability (SK-LU-1; first compound 0.003162 µM) was 0.888, the relative viability (SK-LU-1; first compound 0.01 µM) was 0.933 and the relative viability (SK-LU-1; first compound 0.03162 µM) was 0.805. For the same compound, the relative viability (SK-LU-1; first compound 0.1 µM) was 0.693, the relative viability (NCI-H647; first compound 0.001 µM) was 1.05 and the relative viability (NCI-H647; first compound 0.003162 µM) was 1.34. It also gave a relative viability (NCI-H647; first compound 0.03162 µM) of 0.749, a relative viability (NCI-H647; first compound 0.1 µM) of 0.716 and a relative viability (PC-3 [JPC-3]) of 0.987.
